Test results: ChEMBL document CHEMBL4000238, “Discovery of core-structurally novel PTP1B inhibitors with specific selectivity containing oxindole-fused spirotetrahydrofurochroman by one-pot reaction” (Bioorg Med Chem Lett, 2017)

What was measured:
[1] = molecular target: T1, Tyrosine-protein phosphatase non-receptor type 1 (Homo sapiens, UniProt P18031); test: Inhibition of recombinant human PTP1B catalytic domain expressed in Escherichia coli BL21-CodonPlus (DE3) using pNPP as substrate measured for 2 mins
T1 sequence (P18031 whole entry): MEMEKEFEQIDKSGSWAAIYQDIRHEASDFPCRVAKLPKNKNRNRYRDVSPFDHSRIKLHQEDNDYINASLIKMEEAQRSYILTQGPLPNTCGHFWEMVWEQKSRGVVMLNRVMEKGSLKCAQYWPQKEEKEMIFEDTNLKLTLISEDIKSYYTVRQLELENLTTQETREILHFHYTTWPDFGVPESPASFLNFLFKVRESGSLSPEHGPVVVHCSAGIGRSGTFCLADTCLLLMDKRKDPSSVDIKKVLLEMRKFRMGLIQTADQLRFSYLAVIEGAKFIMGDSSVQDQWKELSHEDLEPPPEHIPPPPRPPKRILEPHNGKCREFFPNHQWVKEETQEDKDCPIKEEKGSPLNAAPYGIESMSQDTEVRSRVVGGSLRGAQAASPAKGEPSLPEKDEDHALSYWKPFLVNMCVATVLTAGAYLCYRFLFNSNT

[2] = molecular target: Receptor-type tyrosine-protein phosphatase F (Homo sapiens) (UniProt P10586); test: Inhibition of GST-tagged human LAR expressed in Escherichia coli at 20 ug/ml using pNPP as substrate relative to control
[3] = molecular target: T2, Tyrosine-protein phosphatase non-receptor type 2 (Homo sapiens) (UniProt P17706); test: Inhibition of GST-tagged human […] expressed in Escherichia coli at 20 ug/ml using pNPP as substrate relative to control
T2 sequence (whole entry): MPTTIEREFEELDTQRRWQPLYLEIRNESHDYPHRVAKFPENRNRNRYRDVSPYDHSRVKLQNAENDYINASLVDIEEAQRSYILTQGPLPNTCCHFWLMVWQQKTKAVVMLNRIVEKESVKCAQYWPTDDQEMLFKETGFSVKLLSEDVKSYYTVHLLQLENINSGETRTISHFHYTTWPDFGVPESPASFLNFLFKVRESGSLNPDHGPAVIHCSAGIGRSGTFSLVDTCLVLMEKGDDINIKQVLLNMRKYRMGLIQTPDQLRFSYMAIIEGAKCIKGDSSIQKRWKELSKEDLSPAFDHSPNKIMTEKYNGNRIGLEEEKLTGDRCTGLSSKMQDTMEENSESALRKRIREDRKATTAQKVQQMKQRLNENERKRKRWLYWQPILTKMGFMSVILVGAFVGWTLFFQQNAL

[4] = molecular target: T3, Tyrosine-protein phosphatase non-receptor type 6 (Homo sapiens, UniProt P29350); test: Inhibition of GST-tagged human SHP1 expressed in Escherichia coli at 20 ug/ml using pNPP as substrate relative to control
[5] = molecular target: T3, Tyrosine-protein phosphatase non-receptor type 6; test: Inhibition of GST-tagged human SHP1 expressed in Escherichia coli using pNPP as substrate
[6] = molecular target: T4, Tyrosine-protein phosphatase non-receptor type 2 (Homo sapiens, UniProt P17706); test: Inhibition of GST-tagged human […] expressed in Escherichia coli using pNPP as substrate
T4 sequence (P17706 whole entry): T2 sequence (whole entry)

T3 sequence (P29350 whole entry): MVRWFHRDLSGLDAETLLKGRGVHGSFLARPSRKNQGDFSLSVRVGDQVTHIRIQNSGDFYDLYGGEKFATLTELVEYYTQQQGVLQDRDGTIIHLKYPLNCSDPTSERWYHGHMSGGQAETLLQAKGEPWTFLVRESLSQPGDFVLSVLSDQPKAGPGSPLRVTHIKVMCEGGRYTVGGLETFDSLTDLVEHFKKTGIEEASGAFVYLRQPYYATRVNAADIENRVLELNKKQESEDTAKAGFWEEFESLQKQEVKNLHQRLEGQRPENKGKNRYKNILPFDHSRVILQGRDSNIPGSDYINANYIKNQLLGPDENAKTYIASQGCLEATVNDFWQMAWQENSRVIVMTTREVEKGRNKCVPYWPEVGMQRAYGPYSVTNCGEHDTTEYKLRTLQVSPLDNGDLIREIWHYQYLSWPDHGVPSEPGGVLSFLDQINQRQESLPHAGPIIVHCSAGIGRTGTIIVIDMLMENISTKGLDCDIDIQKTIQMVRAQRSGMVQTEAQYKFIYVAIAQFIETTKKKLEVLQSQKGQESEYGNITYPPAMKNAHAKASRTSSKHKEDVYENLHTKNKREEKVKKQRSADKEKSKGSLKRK
Sequence of Receptor-type tyrosine-protein phosphatase F (Homo sapiens) (P10586 whole entry): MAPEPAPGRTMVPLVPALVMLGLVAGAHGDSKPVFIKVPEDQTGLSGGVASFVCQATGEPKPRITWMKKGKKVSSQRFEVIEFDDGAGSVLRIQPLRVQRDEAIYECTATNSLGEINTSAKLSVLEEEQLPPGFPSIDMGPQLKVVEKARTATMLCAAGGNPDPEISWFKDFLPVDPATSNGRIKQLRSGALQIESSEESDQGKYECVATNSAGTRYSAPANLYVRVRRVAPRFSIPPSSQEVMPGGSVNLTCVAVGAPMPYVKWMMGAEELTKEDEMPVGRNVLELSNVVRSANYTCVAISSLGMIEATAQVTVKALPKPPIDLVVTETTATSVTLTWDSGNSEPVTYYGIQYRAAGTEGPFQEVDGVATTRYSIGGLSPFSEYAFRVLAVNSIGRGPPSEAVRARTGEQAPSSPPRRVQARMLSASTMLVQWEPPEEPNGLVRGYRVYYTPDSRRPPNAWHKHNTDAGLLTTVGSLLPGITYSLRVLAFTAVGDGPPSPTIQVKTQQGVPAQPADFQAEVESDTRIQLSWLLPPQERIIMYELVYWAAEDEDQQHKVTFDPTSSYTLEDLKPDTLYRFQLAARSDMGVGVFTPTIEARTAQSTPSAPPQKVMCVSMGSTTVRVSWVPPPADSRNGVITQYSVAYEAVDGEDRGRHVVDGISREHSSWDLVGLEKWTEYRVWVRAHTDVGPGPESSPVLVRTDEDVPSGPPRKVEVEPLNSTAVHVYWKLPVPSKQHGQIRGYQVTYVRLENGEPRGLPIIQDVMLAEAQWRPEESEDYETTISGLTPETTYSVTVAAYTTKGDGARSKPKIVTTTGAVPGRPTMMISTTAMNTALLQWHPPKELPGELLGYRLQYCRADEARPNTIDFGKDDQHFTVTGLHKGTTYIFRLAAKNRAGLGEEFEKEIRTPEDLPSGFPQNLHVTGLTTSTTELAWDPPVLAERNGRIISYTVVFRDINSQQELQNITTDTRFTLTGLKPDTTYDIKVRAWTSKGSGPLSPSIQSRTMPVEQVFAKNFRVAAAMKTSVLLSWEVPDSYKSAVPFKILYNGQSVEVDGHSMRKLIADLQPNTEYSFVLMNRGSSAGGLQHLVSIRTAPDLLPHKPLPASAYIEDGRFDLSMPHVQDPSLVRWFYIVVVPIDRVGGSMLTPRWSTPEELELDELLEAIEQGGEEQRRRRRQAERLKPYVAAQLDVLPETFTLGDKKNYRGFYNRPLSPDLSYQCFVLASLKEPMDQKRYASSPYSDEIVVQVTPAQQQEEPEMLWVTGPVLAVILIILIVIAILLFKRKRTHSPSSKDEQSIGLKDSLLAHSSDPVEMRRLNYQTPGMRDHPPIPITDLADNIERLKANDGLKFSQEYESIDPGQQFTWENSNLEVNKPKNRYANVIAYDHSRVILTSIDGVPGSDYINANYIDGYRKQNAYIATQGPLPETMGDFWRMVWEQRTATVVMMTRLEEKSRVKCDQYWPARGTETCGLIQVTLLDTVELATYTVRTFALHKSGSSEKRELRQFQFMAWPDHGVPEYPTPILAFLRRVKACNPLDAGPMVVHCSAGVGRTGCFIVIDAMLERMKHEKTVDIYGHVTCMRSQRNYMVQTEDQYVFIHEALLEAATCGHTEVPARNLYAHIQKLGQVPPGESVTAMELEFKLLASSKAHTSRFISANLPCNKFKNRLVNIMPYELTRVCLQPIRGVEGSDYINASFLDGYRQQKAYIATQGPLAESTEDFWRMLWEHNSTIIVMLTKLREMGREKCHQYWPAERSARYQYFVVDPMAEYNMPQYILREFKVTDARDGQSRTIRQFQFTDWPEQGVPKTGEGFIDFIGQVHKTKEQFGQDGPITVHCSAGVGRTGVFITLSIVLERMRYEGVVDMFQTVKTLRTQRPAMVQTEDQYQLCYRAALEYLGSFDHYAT

Structure (SMILES)	IC50 [1] [µM]	further results
COC(=O)C[C@H]1Oc2c(OC)cccc2[C@@H]2O[C@@]3(C(=O)N(Cc4ccccc4)c4ccccc43)[C@@H](c3ccc(C)cc3)[C@]12[N+](=O)[O-]	8.2	
COC(=O)C[C@H]1Oc2ccc(OC)cc2[C@@H]2O[C@@]3(C(=O)N(Cc4ccccc4)c4ccccc43)[C@@H](c3ccc(Br)cc3)[C@]12[N+](=O)[O-]	6.67	
Cc1ccc2c(c1)[C@@H]1O[C@@]3(C(=O)N(Cc4ccccc4)c4ccccc43)[C@@H](c3ccccc3)[C@@]13NC(=O)C[C@H]3O2	10.3	
COC(=O)/C=C/Oc1ccc(OC)cc1[C@@H]1O[C@@]2(C(=O)N(Cc3ccccc3)c3ccccc32)[C@@H](c2ccc(C)cc2)[C@@H]1[N+](=O)[O-]	13.2	
COc1ccc2c(c1)[C@@H]1O[C@@]3(C(=O)N(Cc4ccccc4)c4ccccc43)[C@@H](c3ccc(C)cc3)[C@@]13NC(=O)C[C@H]3O2	7.98	
COc1ccccc1[C@H]1[C@]23NC(=O)C[C@H]2Oc2c(OC)cccc2[C@@H]3O[C@@]12C(=O)N(Cc1ccccc1)c1ccccc12	10	
COc1cccc2c1O[C@@H]1CC(=O)N[C@]13[C@H]2O[C@@]1(C(=O)N(Cc2ccccc2)c2ccccc21)[C@H]3c1ccc(C)cc1	7.07	
COc1cccc2c1O[C@@H]1CC(=O)N[C@]13[C@H]2O[C@@]1(C(=O)N(Cc2ccccc2)c2ccccc21)[C@H]3c1ccc(Br)cc1	6.19	
COc1ccc2c(c1)[C@@H]1O[C@@]3(C(=O)N(Cc4ccccc4)c4ccccc43)[C@@H](c3ccc(Br)cc3)[C@@]13NC(=O)C[C@H]3O2	6.48	
COC(=O)/C=C/Oc1c(OC)cccc1[C@@H]1O[C@@]2(C(=O)N(Cc3ccccc3)c3ccccc32)[C@@H](c2ccc(C)cc2)[C@@H]1[N+](=O)[O-]	6.8	

The next lines start with results.

IC50 [1] [µM]	Structure (SMILES)	further results
5.34	COC(=O)/C=C/Oc1ccc(OC)cc1[C@@H]1O[C@@]2(C(=O)N(Cc3ccccc3)c3ccccc32)[C@@H](c2ccc(Br)cc2)[C@@H]1[N+](=O)[O-]	
3.89	COC(=O)/C=C/Oc1c(OC)cccc1[C@@H]1O[C@@]2(C(=O)N(Cc3ccccc3)c3ccccc32)[C@@H](c2ccc(Br)cc2)[C@@H]1[N+](=O)[O-]	inhibition [2]: 18.7%; inhibition [3]: 38.3%; inhibition [4]: 98.8%; IC50 [5]: 5.29 µM
4.65	COC(=O)C[C@H]1Oc2ccc(Cl)cc2[C@@H]2O[C@@]3(C(=O)N(Cc4ccccc4)c4ccccc43)[C@@H](c3ccc(Br)cc3)[C@]12[N+](=O)[O-]	
4.53	COC(=O)C[C@H]1Oc2ccc(OC)cc2[C@@H]2O[C@@]3(C(=O)N(Cc4ccccc4)c4ccccc43)[C@@H](c3ccc(C)cc3)[C@]12[N+](=O)[O-]	inhibition [2]: 15.5%; inhibition [3]: 10.3%; inhibition [4]: 31.1%
5.83	COC(=O)C[C@H]1Oc2c(OC)cccc2[C@@H]2O[C@@]3(C(=O)N(Cc4ccccc4)c4ccccc43)[C@@H](c3ccccc3OC)[C@]12[N+](=O)[O-]	
4.72	Cc1ccc([C@H]2[C@]34NC(=O)C[C@H]3Oc3ccc(C)cc3[C@@H]4O[C@@]23C(=O)N(Cc2ccccc2)c2ccccc23)cc1	inhibition [2]: 6.72%; inhibition [3]: 19.4%; inhibition [4]: 96.1%; IC50 [6]: 35.8 µM; IC50 [5]: 10.6 µM
5.43	COC(=O)C[C@H]1Oc2c(OC)cccc2[C@@H]2O[C@@]3(C(=O)N(Cc4ccccc4)c4ccccc43)[C@@H](c3ccc(Br)cc3)[C@]12[N+](=O)[O-]	
5.61	Cc1ccc([C@H]2[C@]34NC(=O)C[C@H]3Oc3ccc(Cl)cc3[C@@H]4O[C@@]23C(=O)N(Cc2ccccc2)c2ccccc23)cc1	
6.04	O=C1C[C@H]2Oc3ccc(Cl)cc3[C@@H]3O[C@@]4(C(=O)N(Cc5ccccc5)c5ccccc54)[C@@H](c4ccc(Br)cc4)[C@]23N1	
